Key:
[1] = target: AR / CBP ternary complex (Homo sapiens, UniProt P10275+Q92793); assay: Ternary complex formation assay (sandwich ELISA, AR capture, CBP antibody detection) in VCaP cell lysates; type: cell-based; settings: treated 1.5 hours, rabbit CBP or p300 antibody detection, average, read-out: Average Ternary Complex
Method in brief: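 VCaP cells in 5% charcoal-stripped FBS were cultured ≥3 days and then given bifunctional compound for 1.5 h. Lysates went onto AR-antibody-coated plates. Bound CBP (or p300) was detected with a rabbit antibody plus HRP anti-rabbit, using QuantaRed chemifluorescence (ex 570/em 585) read immediately, at 5 min and at 15 min.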

[2] = test system: VCaP cells; assay: VCaP growth inhibition assay (CTG); type: cell-based; settings: Homo sapiens, 216 h, 30 pM R1881, 9 days
Method in brief: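 VCaP cells in phenol red-free DMEM with 5% charcoal-stripped serum were stimulated with 30 pM R1881 (final) and treated with compound from 100 nM to 10 fM final (1:5 dilutions) for 9 days at 37 °C. Viability was read by CellTiter-Glo luminescence, and IC50 came from 4-parameter logistic fits.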

Chain of AR / CBP ternary complex (P10275 whole entry): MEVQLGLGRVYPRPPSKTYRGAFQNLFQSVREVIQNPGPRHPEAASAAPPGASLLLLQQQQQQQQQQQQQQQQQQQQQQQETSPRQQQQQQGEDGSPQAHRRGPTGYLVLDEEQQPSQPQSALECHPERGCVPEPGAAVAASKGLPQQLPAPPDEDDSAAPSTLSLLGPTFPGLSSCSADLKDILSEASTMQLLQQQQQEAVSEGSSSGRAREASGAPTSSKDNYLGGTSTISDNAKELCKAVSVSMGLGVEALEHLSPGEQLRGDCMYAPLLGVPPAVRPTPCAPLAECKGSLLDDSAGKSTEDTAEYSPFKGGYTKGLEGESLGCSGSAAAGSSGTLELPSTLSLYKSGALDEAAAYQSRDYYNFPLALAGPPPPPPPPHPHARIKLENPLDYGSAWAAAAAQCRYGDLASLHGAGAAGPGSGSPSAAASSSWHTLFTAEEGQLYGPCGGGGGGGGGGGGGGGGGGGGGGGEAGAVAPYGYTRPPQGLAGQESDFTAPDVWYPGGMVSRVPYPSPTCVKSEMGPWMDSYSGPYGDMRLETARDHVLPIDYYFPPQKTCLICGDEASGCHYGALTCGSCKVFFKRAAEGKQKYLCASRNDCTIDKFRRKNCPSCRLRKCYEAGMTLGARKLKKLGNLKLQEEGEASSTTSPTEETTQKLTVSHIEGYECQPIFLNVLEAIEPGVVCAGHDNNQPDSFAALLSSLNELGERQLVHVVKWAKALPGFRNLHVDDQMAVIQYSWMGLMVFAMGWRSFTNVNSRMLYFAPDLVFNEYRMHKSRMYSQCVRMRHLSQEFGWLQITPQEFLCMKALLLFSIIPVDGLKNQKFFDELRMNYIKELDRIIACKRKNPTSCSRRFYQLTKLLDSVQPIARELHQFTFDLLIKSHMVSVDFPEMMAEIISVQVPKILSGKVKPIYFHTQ
Chain of AR / CBP ternary complex (Q92793 2-2442): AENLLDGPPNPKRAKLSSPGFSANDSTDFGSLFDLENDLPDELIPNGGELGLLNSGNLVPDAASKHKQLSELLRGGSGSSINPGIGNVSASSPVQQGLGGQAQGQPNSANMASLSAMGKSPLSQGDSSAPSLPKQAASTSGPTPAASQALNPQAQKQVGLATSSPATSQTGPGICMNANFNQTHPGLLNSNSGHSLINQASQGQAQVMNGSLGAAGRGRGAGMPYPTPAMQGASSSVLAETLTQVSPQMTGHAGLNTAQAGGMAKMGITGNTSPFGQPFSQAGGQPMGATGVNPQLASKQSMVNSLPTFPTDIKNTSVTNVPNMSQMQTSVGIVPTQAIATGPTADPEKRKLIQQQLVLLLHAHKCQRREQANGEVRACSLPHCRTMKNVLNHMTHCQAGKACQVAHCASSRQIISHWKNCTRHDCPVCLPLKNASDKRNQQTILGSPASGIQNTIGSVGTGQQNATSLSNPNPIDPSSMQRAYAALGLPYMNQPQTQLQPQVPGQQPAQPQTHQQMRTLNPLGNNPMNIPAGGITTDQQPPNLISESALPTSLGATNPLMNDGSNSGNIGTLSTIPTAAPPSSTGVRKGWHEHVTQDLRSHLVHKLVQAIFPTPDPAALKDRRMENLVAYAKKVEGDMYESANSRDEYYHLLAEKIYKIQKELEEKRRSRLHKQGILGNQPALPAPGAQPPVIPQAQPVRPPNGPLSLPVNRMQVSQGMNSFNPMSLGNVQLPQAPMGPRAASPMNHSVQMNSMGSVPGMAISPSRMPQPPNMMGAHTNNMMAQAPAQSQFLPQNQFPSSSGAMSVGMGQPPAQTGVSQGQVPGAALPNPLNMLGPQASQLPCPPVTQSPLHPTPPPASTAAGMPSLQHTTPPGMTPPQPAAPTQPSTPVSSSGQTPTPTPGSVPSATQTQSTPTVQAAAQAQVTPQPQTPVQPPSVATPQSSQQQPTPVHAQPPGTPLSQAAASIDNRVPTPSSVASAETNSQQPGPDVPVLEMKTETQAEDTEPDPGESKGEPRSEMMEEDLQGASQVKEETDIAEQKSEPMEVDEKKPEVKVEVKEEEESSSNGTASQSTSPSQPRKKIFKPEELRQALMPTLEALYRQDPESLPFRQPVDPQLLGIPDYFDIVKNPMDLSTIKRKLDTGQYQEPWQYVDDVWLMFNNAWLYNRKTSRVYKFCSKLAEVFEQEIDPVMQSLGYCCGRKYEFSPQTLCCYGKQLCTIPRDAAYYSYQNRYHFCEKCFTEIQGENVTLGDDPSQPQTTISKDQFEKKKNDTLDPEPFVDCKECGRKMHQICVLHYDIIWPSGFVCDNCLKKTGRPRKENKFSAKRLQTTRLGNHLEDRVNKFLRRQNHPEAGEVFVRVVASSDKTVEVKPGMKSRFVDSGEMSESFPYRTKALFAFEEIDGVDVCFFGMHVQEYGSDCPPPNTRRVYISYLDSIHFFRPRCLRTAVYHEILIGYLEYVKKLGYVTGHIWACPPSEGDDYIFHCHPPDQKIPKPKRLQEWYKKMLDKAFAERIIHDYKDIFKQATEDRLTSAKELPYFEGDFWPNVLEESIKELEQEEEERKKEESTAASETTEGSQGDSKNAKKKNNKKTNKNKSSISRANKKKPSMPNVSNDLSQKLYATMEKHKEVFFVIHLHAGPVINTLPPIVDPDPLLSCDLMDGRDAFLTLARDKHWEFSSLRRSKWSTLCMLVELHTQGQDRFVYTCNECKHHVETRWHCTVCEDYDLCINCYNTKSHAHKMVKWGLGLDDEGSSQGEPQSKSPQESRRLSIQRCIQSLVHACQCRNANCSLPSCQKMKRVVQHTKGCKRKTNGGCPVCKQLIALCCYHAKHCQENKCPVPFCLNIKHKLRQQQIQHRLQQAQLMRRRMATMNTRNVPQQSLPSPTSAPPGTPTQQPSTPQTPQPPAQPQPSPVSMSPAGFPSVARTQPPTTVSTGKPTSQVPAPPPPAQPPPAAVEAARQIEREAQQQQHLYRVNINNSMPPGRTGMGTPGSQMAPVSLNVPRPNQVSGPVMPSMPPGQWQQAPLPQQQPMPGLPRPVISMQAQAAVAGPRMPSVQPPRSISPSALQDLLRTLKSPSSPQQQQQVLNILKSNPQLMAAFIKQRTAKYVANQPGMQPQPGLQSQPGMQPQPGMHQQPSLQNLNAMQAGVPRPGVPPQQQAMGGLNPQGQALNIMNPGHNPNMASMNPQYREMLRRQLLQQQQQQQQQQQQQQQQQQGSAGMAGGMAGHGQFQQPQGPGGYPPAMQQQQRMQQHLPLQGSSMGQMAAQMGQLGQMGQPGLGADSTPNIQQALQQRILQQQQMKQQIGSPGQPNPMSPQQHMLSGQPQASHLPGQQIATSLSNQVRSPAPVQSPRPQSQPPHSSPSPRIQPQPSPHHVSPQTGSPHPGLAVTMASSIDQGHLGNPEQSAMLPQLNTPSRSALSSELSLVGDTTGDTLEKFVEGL

For `CC(=O)N1CCc2c(c(-c3cccc4cc(-c5cnn(CCOC6CCN(c7ccc(C(=O)N[C@H]8CC[C@H](Oc9ccc(C#N)c(Cl)c9)CC8)nn7)CC6)c5)ncc34)nn2C2CCOCC2)C1` [Compound 26, 6-[4-[2-[4-[8-(5-acetyl-1-tetrahydropyran-4-yl-6,7-dihydro-4H-pyrazolo[4,3-c]pyridin-3-yl)-3-isoquinolyl]pyrazol-1-yl]ethoxy]-1-piperidyl]-N-[4-(3-chloro-4-cyano-phenoxy)cyclohexyl]pyridazine-3-carboxamide], the EC50 [1] was less than 1 nM and the IC50 [2] was no more than 0.1 nM.
Molecule `CC(=O)N1CCc2c(c(-c3cccc4cc(-c5ccc(CCOC6CCN(c7ccc(C(=O)N[C@H]8CC[C@H](Oc9ccc(C#N)c(Cl)c9)CC8)nn7)CC6)nc5)ncc34)nn2C2CCOCC2)C1` [Compound 27, 6-[4-[2-[5-[8-(5-acetyl-1-tetrahydropyran-4-yl-6,7-dihydro-4H-pyrazolo[4,3-c]pyridin-3-yl)-3-isoquinolyl]-2-pyridyl]ethoxy]-1-piperidyl]-N-[4-(3-chloro-4-cyano-phenoxy)cyclohexyl]pyridazine-3-carboxamide] has an EC50 [1] of less than 1 nM and an IC50 [2] of 0.1 to 1 nM.
Work on `CC(=O)N1CCc2c(c(-c3cccc4cc(-c5ccc(CCN6CCN(c7ccc(C(=O)N[C@H]8CC[C@H](Oc9ccc(C#N)c(Cl)c9)CC8)nn7)CC6)nc5)ncc34)nn2C2CCOCC2)C1` [Compound 28, 6-[4-[2-[5-[8-(5-acetyl-1-tetrahydropyran-4-yl-6,7-dihydro-4H-pyrazolo[4,3-c]pyridin-3-yl)-3-isoquinolyl]-2-pyridyl]ethyl]piperazin-1-yl]-N-[4-(3-chloro-4-cyano-phenoxy)cyclohexyl]pyridazine-3-carboxamide] yielded an EC50 [1] of less than 1 nM and an IC50 [2] of no more than 0.1 nM.
In the case of `CC(=O)N1CCc2c(c(-c3cccc4cc(-c5ccc(CCN6CCN(c7ccc(C(=O)N[C@H]8CC[C@H](Oc9ccc(C#N)c(Cl)c9)CC8)nn7)CC6)nc5)ncc34)nn2C)C1` [Compound 30, 6-[4-[2-[5-[8-(5-acetyl-1-methyl-6,7-dihydro-4H-pyrazolo[4,3-c]pyridin-3-yl)-3-isoquinolyl]-2-pyridyl]ethyl]piperazin-1-yl]-N-[4-(3-chloro-4-cyano-phenoxy)cyclohexyl]pyridazine-3-carboxamide], the EC50 [1] is reported as less than 1 nM and the IC50 [2] is reported as no more than 0.1 nM.
`Cn1cc(-c2cc3cccc(-c4cc(C5CCN(CC6CCN(c7ccc(C(=O)N[C@H]8CC[C@H](Oc9ccc(C#N)c(Cl)c9)CC8)nn7)CC6)CC5)c5c(c4)n(C)c(=O)n5C)c3cn2)cn1` [Compound 31, N-[4-(3-chloro-4-cyano-phenoxy)cyclohexyl]-6-[4-[[4-[1,3-dimethyl-6-[3-(1-methylpyrazol-4-yl)-8-isoquinolyl]-2-oxo-benzimidazol-4-yl]-1-piperidyl]methyl]-1-piperidyl]pyridazine-3-carboxamide] gave an EC50 [1] of less than 1 nM and an IC50 [2] of no more than 0.1 nM.
`CC(=O)N1CCc2c(c(-c3cccc4cc(-c5cnn(C)c5)ncc34)nn2C2CCN(CC3CCN(c4ccc(C(=O)N[C@H]5CC[C@H](Oc6ccc(C#N)c(Cl)c6)CC5)nn4)CC3)CC2)C1` [Compound 32, 6-[4-[[4-[5-acetyl-3-[3-(1-methylpyrazol-4-yl)-8-isoquinolyl]-6,7-dihydro-4H-pyrazolo[4,3-c]pyridin-1-yl]-1-piperidyl]methyl]-1-piperidyl]-N-[4-(3-chloro-4-cyano-phenoxy)cyclohexyl]pyridazine-3-carboxamide] was tested, and the EC50 [1] was less than 1 nM and the IC50 [2] was no more than 0.1 nM.
`Cn1cc(-c2cc3c(cc2C(F)F)N(c2cc(C4CCN(CC5CCN(c6ccc(C(=O)N[C@H]7CC[C@H](Oc8ccc(C#N)c(Cl)c8)CC7)nn6)CC5)CC4)c4c(c2)n(C)c(=O)n4C)CCC3)cn1` [Compound 33, N-[4-(3-chloro-4-cyano-phenoxy)cyclohexyl]-6-[4-[[4-[6-[7-(difluoromethyl)-6-(1-methylpyrazol-4-yl)-3,4-dihydro-2H-quinolin-1-yl]-1,3-dimethyl-2-oxo-benzimidazol-4-yl]-1-piperidyl]methyl]-1-piperidyl]pyridazine-3-carboxamide] was tested, and the EC50 [1] was less than 1 nM and the IC50 [2] was 0.1 to 1 nM.
`C[C@@H]1CC(=O)Nc2cccc(N3CCCc4cc(-c5cnn(CC6CCN(c7ccc(C(=O)N[C@H]8CC[C@H](Oc9ccc(C#N)c(Cl)c9)CC8)nn7)CC6)c5)c(C(F)F)cc43)c2N1` [Compound 34, N-[4-(3-chloro-4-cyano-phenoxy)cyclohexyl]-6-[4-[[4-[7-(difluoromethyl)-1-[(4R)-4-methyl-2-oxo1,3,4,5-tetrahydro-1,5-benzodiazepin-6-yl]-3,4-dihydro-2H-quinolin-6-yl]pyrazol-1-yl]methyl]-1-piperidyl]pyridazine-3-carboxamide] was tested, and the EC50 [1] was 1 to 10 nM and the IC50 [2] was 0.1 to 1 nM.
`Cc1cc2c(N3CCN(C)c4cc(-c5cnn(C)c5)c(C#N)cc43)cc(OC3CCN(c4ccc(C(=O)N[C@H]5CC[C@H](Oc6ccc(C#N)c(Cl)c6)CC5)nn4)CC3)cc2n(C)c1=O` [Compound 35, N-[4-(3-chloro-4-cyano-phenoxy)cyclohexyl]-6-[4-[[5-[7-cyano-4-methyl-6-(1-methylpyrazol-4-yl)-2,3-dihydroquinoxalin-1-yl]-1,3-dimethyl-2-oxo-7-quinolyl]oxy]-1-piperidyl]pyridazine-3-carboxamide] showed an EC50 [1] greater than 100 nM and an IC50 [2] of 0.1 to 1 nM.
`C[C@@H]1CC(=O)Nc2cccc(N3CCCc4cc(-c5cnn(CCC6CCN(c7ccc(C(=O)N[C@H]8CC[C@H](Oc9ccc(C#N)c(Cl)c9)CC8)nn7)CC6)c5)c(C(F)F)cc43)c2N1` [Compound 36, N-[4-(3-chloro-4-cyano-phenoxy)cyclohexyl]-6-[4-[2-[4-[7-(difluoromethyl)-1-[(4R)-4-methyl-2-oxo-1,3,4,5-tetrahydro-1,5-benzodiazepin-6-yl]-3,4-dihydro-2H-quinolin-6-yl]pyrazol-1-yl]ethyl]-1-piperidyl]pyridazine-3-carboxamide] gave an EC50 [1] of 10 to 100 nM and an IC50 [2] of 1 to 100 nM.
With `Cc1cc2c(N3CCN(C)c4cc(-c5cnn(C)c5)c(C#N)cc43)cc(OCC3CCN(c4ccc(C(=O)N[C@H]5CC[C@H](Oc6ccc(C#N)c(Cl)c6)CC5)nn4)CC3)cc2n(C)c1=O` [Compound 37, N-[4-(3-chloro-4-cyano-phenoxy)cyclohexyl]-6-[4-[[5-[7-cyano-4-methyl-6-(1-methylpyrazol-4-yl)-2,3-dihydroquinoxalin-1-yl]-1,3-dimethyl-2-oxo-7-quinolyl]oxymethyl]-1-piperidyl]pyridazine-3-carboxamide] the EC50 [1] was greater than 100 nM and the IC50 [2] was 0.1 to 1 nM.
Work on `Cc1cc2c(N3CCN(C)c4cc(-c5cnn(C)c5)c(C#N)cc43)cc(OCCC3CCN(c4ccc(C(=O)N[C@H]5CC[C@H](Oc6ccc(C#N)c(Cl)c6)CC5)nn4)CC3)cc2n(C)c1=O` [Compound 38, N-[4-(3-chloro-4-cyano-phenoxy)cyclohexyl]-6-[4-[2-[[5-[7-cyano-4-methyl-6-(1-methylpyrazol-4-yl)-2,3-dihydroquinoxalin-1-yl]-1,3-dimethyl-2-oxo-7-quinolyl]oxy]ethyl]-1-piperidyl]pyridazine-3-carboxamide] yielded an EC50 [1] greater than 100 nM and an IC50 [2] of 0.1 to 1 nM.
With `Cc1cc2c(N3CCN(C)c4cc(-c5cnn(C)c5)c(C#N)cc43)cc(OCCOC3CCN(c4ccc(C(=O)N[C@H]5CC[C@H](Oc6ccc(C#N)c(Cl)c6)CC5)nn4)CC3)cc2n(C)c1=O` [Compound 39, N-[4-(3-chloro-4-cyano-phenoxy)cyclohexyl]-6-[4-[2-[[5-[7-cyano-4-methyl-6-(1-methylpyrazol-4-yl)-2,3-dihydroquinoxalin-1-yl]-1,3-dimethyl-2-oxo-7-quinolyl]oxy]ethoxy]-1-piperidyl]pyridazine-3-carboxamide] the EC50 [1] was less than 1 nM and the IC50 [2] was no more than 0.1 nM.
Molecule `CC(=O)N1CCc2c(c(N3CCCc4cc(-c5cnn(C)c5)c(C(F)F)cc43)nn2C2CC3(C2)CN(C(=O)C2CC4(C2)CN(c2ccc(C(=O)N[C@H]5CC[C@H](Oc6ccc(C#N)c(Cl)c6)CC5)nn2)C4)C3)C1` (some centres unmarked) [Compound 40, 6-[6-[6-[5-acetyl-3-[7-(difluorodimethyl)-6-(1-methylpyrazol-4-yl)-3,4-dihydro-2H-quinolin-1-yl]-6,7-dihydro-4H-pyrazolo[4,3-c]pyridin-1-yl]-2-azaspiro[3.3]heptane-2-carbonyl]-2-azaspiro[3.3]heptan-2-yl]-N-[4-(3-chloro-4-cyano-phenoxy)cyclohexyl]pyridazine-3-carboxamide] has an EC50 [1] of 1 to 10 nM and an IC50 [2] of 0.1 to 1 nM.
Molecule `CC(=O)N1CCc2c(c(N3CCCc4cc(-c5cnn(C)c5)c(C(F)F)cc43)nn2C2CC3(C2)CN(CC2CC4(C2)CN(c2ccc(C(=O)N[C@H]5CC[C@H](Oc6ccc(C#N)c(Cl)c6)CC5)nn2)C4)C3)C1` (some centres unmarked) [Compound 41, 6-[6-[[6-[5-acetyl-3-[7-(difluoromethyl)-6-(1-methylpyrazol-4-yl)-3,4-dihydro-2H-quinolin-1-yl]-6,7-dihydro-4H-pyrazolo[4,3-c]pyridin-1-yl]-2-azaspiro [3.3]heptan-2-yl]methyl]-2-azaspiro [3.3]heptan-2-yl]-N-[4-(3-chloro-4-cyano-phenoxy)cyclohexyl] pyridazine-3-carboxamide] has an EC50 [1] of less than 1 nM and an IC50 [2] of no more than 0.1 nM.
`CC(=O)N1CCc2c(c(N3CCCc4ccc(C(F)F)cc43)nn2C2CC3(C2)CN(C(=O)C2CC4(C2)CN(c2ccc(C(=O)N[C@H]5CC[C@H](Oc6ccc(C#N)c(Cl)c6)CC5)nn2)C4)C3)C1` (some centres unmarked) [Compound 42, 6-[6-[6-[5-acetyl-3-[7-(difluoromethyl)-3,4-dihydro-2H-quinolin-1-yl]-6,7-dihydro-4H-pyrazolo[4,3-c]pyridin-1-yl]-2-azaspiro[3.3]heptane-2-carbonyl]-2-azaspiro[3.3]heptan-2-yl]-N-[4-(3-chloro-4-cyano-phenoxy)cyclohexyl]pyridazine-3-carboxamide] gave an EC50 [1] of 1 to 10 nM and an IC50 [2] of 0.1 to 1 nM.

— patent US20250136578A1 (Kolm Therapeutics Inc., priority 2023, published 2025)
